Results taken from paper PMC8217266 (Clinical Pharmacology and Therapeutics, 2021).

How the values were obtained:
human OATP1B3 = biological target: T1, human OATP1B3 (Homo sapiens, UniProt Q9NPD5)
T1 sequence (Q9NPD5 1-702): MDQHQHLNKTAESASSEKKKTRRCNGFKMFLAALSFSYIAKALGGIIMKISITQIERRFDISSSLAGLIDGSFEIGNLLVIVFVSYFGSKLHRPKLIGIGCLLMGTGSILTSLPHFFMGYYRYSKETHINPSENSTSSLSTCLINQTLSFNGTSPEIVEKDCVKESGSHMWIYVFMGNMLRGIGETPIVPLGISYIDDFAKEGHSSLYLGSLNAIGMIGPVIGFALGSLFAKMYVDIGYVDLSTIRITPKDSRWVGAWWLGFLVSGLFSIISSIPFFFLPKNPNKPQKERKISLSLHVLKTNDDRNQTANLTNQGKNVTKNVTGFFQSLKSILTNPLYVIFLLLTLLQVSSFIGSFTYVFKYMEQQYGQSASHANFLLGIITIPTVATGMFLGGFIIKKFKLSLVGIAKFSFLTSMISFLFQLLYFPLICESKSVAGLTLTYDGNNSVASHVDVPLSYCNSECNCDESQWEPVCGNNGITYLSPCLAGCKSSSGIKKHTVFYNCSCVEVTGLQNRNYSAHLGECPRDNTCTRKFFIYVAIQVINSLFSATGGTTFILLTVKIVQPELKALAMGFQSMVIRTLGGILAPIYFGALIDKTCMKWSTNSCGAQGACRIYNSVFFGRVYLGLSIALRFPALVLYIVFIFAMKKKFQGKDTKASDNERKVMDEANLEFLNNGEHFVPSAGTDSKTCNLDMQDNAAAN

human OCT1 = biological target: T2, human OCT1 (Homo sapiens, UniProt O15245); settings: for Iu,in,max/IC50 OCT1: human
T2 sequence (O15245 1-554): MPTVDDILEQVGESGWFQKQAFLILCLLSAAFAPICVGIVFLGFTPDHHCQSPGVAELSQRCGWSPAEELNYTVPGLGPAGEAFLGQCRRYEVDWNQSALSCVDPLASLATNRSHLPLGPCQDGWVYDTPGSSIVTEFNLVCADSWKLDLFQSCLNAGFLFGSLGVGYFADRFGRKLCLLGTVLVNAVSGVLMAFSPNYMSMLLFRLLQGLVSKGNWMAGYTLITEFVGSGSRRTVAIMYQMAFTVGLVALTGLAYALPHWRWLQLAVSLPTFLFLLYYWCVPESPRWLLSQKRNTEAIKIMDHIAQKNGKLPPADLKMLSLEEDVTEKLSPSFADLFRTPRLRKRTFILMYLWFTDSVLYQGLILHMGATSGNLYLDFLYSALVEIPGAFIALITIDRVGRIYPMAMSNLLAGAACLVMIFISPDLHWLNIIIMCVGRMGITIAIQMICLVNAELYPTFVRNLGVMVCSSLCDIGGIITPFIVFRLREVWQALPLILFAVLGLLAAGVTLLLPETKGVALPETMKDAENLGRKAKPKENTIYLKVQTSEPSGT

human OCT2 = biological target: T3, human OCT2 (Homo sapiens, UniProt O15244)
T3 sequence (O15244 1-555): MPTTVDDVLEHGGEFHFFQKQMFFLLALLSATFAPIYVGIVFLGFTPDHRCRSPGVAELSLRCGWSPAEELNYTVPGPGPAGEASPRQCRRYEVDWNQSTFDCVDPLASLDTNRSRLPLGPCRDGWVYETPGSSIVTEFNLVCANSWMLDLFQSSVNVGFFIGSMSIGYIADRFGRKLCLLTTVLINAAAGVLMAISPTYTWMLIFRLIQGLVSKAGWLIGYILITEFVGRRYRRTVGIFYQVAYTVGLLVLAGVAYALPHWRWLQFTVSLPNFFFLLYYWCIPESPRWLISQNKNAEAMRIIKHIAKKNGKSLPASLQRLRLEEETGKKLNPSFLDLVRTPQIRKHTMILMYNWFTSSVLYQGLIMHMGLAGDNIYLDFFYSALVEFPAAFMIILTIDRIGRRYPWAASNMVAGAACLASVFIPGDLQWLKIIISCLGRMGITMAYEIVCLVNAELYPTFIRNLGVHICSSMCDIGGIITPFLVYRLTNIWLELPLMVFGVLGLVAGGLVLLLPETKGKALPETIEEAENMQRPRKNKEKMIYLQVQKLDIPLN

[1] = system: uric acid, a biomarker of BCRP activity; test: UCSF EHR analysis: serum/plasma uric acid, on vs off drug; assay type: in vivo, human
[2] = system: triglycerides, LDL cholesterol, and total cholesterol, biomarkers of OCT1 activity; test: UCSF EHR analysis: lipid levels in patients with HIV, on vs off drug; assay type: in vivo, human

Compound: N#CC[C@H](C1CCCC1)n1cc(-c2ncnc3[nH]ccc23)cn1 [Ruxolitinib]
- Iu,in,max/IC50 OATP1B3 (human OATP1B3): 0.008
- Iu,in,max/IC50 OCT1 (human OCT1): 0.02
- Cu,max/IC50 OCT2 (human OCT2): 0.003

Compound: CCOC(=O)c1c(CSc2ccccc2)n(C)c2cc(Br)c(O)c(CN(C)C)c12 [Umifenovir (Arbidol), Umifenovir]
- Iu,in,max/IC50 OATP1B3 (human OATP1B3): 0.73
- OCT1 inhibited more potently relative to OCT2 (human OCT1): ≥ 10 fold
- Iu,in,max/IC50 OCT1 (human OCT1): 3.93
- Cu,max/IC50 OCT2 (human OCT2): 0.006

Compound: CCCc1nn(C)c2c(=O)[nH]c(-c3cc(S(=O)(=O)N4CCN(C)CC4)ccc3OCC)nc12 [Sildenafil]
- Median SUA On drug ([1]; criteria 1, off drug 5.7): 6.7/5.7 mg/dL
- Median SUA On drug ([1]; criteria 2, off drug 5.6): 6.9/5.6 mg/dL
- Median SUA On drug ([1]; main analysis, matched 1:5, off drug 5.7, P <2.2E-16): 6.6/5.7 mg/dL

Compound: CC(C)CN(C[C@@H](O)[C@H](Cc1ccccc1)NC(=O)O[C@H]1CO[C@H]2OCC[C@H]21)S(=O)(=O)c1ccc(N)cc1 [Darunavir]
- LDL cholesterol, Median On drug ([2]; matched 1:2, off drug 95): 100/95 mg/dL
- Total cholesterol, Median On drug ([2]; matched 1:2, off drug 166): 180/166 mg/dL
- LDL cholesterol, Average On drug ([2]; matched 1:2, on n=357, off n=714, off drug 98.7, P 0.0077): 105/98.7 mg/dL
- Total cholesterol, Average On drug ([2]; matched 1:2, on n=364, off n=728, off drug 170, P 5.18E-06): 183/170 mg/dL
- Triglyceride, Average On drug ([2]; matched 1:2, on n=386, off n=772, off drug 160, P 0.00022): 180/160 mg/dL
